We go through 3 compounds from US20080275133A1, “Local Administration of Retinoids to Treat Deficiencies in Dark Adaptation” (University Of Calfornia-San Francisco, priority 2004, published 2008).

The structures appear in SMILES notation. Where two headings read alike, the source gives them in different places.

One data set deals with Dark adaptation. As to conditions: for Night driving ability: one week later. Here is the method: A patient complains of difficulty driving at night, especially in going from a well-lit to a poorly-illuminated environment. […] One cc of Vitamin A and/or one of its visual pigment derivatives in a sustained release suspension is injected retrobulbarly on both sides. […] Six months later, the retrobulbar injections are repeated.
A patient complains of difficulty driving at night, especially in going from a well-lit to a poorly-illuminated environment. […] The patient has a cataract in the right eye and cataract surgery with an intraocular lens is performed. At the time of surgery, a small pellet of concentrated vitamin A and/or one of its visual pigment derivatives is placed in the eye for sustained release.

The test system of data set [1] is Dark adaptation abnormalities. As to conditions: Sorsby's fundus dystrophy patients, high dose oral, for as little as 1 week; cited from earlier work.
The conditions of data set [2]: chronic high dose oral (liver damage, osteoporosis, promotion of lung cancer in smokers); cited from earlier work.
For data set [3] the following is noted: cited from earlier work.

`CC1=C(/C=C/C(C)=C/C=C/C(C)=C/CO)C(C)(C)CCC1` [Vitamin A, (2E,4E,6E,8E)-3,7-dimethyl-9-(2,6,-trimethylcyclohex-1-en-1-yl)nona-2,4,6,8-tetraen-1-ol]: the Night driving ability result was “drives without difficulty at night” with Dark adaptation (Example 1: patient, one cc sustained release suspension retrobulbarly on both sides) and “drives without difficulty at night” in the data set on Dark adaptation (Example 2: patient, small sustained release pellet placed in the eye at cataract surgery). In the data set on Dark adaptation (human, in vivo), the “Duration of delivery in effective concentrations to the retina” value is given as 0.5-3 years. Besides, the Dark adaptation abnormalities result in data set [1] is listed as “rapidly normalize”. In data set [2], the Systemic toxicity entry is “associated systemic toxicity”.

On to `CC1=C(/C=C/C(C)=C/C=C/C(C)=C/C(=O)O)C(C)(C)CCC1` [all-trans-retinoic acid, retinoic acid], for which the “Photostability with BCD inclusion complex” value in data set [3] (beta cyclodextrin inclusion complex formation (Lin et al., 2000)) was “increase the photostability”.

Turning to `CC1=C(/C=C/C(C)=C/C=C/C(C)=C/C=O)C(C)(C)CCC1` [retinal], in data set [3] (beta cyclodextrin inclusion complex (Lerner et al., 1989)), the “Shielding from oxygen by BCD inclusion complex” value was “can shield retinal from oxygen”.
